According to paper PMC6620859, “Synthesis and Preclinical Evaluation of the Fibrin-Binding Cyclic Peptide ^18F-iCREKA: Comparison with Its Contrasted Linear Peptide” (Contrast Media & Molecular Imaging, 2019):
Where “and” joins values, the source holds several entries; their conditions need not be identical. Equal entries are not always repeated.

Legend:
[1] = type: physicochemical
Experimental: The water partition coefficient was reflected by the logP value of the fluorine-18-labeled peptides. 500 μL of octanol and 500 μL of pure water were added into an EP tube. 185 KBq (5 μCi) of fluorine-18-labeled peptides were added into the solution and well mixed. After centrifugating for 5 min at a speed of 1000 r/min, 300 μL of supernatant liquid and 300 μL of lower liquid were carefully pipetted into two γ countertubes, respectively. The logarithm of the radioactivity ratio of octanol to water was the logP value. The test was repeated four times for each fluorine-18-labeled peptide.

[2] = system: Caov3 cells; assay: Cellular uptake test in Caov3 cells; type: cell-based, human; details: radio medium mixed with activated MMP-2; compared with no activation
Experimental: (§1) U87MG cells and Caov3 cells were counted and uniformly inoculated into 24-well plates. The 24-well plates were marked, and cells were incubated for 24 hours in complete DMEM with 10% fetal bovine serum. Radio medium was prepared by adding 888 KBq (24 μCi) fluorine-18-labeled peptide into 15 mL DMEM without any serum. After incubation, the complete DMEM were poured and the radio medium were added in with 500 μL/well. The remainder medium were collected into 4 γ countertubes with 500 μL/tube to be representative of radioactivity gross. When the time arrived at 2, 5, 15, 30, 60, and 120 min, the radio medium were carefully pipetted out and the wells were carefully rinsed by 1 mL of PBS for 3 times. 4 wells were divided into a group corresponding to one time point. After the rinsing, SDS-NaOH solutions were added into the wells to dissociate the cells. The solutions were collected into γ countertubes to measure the radioactivity. The binding affinity was reflected by the radioactivity percentage, which was recorded as ID%, of the wells and the gross. The final results were recorded as the time-radioactivity curve including the six time points.
(§2) Fluorine-18 labeled peptides binding affinities after activation were also measured by this protocol while the radio-medium were mixed with activated MMP-2 (Abcam).

[3] = mouse, in vivo
Experimental: A nude with U87MG xenograft was injected with a dose of approximately 11.1 MBq (0.3 mCi) of ^18F-labeled peptides via the tail vein. The mouse was euthanized at 30 min after injection, the tumor was carefully excised, and the blood was collected. The tumor was cut into pieces and made into homogenates by mixing 200 μL normal saline. The mixture was centrifuged for 10 min at a speed of 12000 r/min. The supernatant liquid was carefully pipetted and transferred into an Amicon® Ultracentrifugal filter device for further centrifugation. The filtrate was injected into an HPLC column to analyze the in vivo stability of fluorine-18-labeled peptide.

[4] = system: U87MG cells; assay: Cellular uptake test in U87MG cells; type: cell-based, human; details: for cellular uptake to U87MG cells after activation by MMP-2: radio medium mixed with activated MMP-2, compared with no activation; for cellular uptake percentage (ID%), peak / maximum, U87MG cells: without MMP-2 activation, serum-free DMEM, 500 μL/well, 2-120 min, PBS rinsed 3 times, γ counting, 4 wells per time point
Experimental: as §1, §2

[5] = biological target: T1, fibrin clots (Homo sapiens, UniProt P02671+P02675+P02679); assay: Fluorine-18-labeled peptide binding affinity to fibrin clots; details: clots from 75 μL fibrinogen 2 mg/mL + 30 μL thrombin 2.5 U/mL; 100 μL tracer in PBS, 37°C, one hour, PBS washed three times, radioactive counter, four tubes, mean ± SD
T1 sequence (P02671 36-629 limits assumed): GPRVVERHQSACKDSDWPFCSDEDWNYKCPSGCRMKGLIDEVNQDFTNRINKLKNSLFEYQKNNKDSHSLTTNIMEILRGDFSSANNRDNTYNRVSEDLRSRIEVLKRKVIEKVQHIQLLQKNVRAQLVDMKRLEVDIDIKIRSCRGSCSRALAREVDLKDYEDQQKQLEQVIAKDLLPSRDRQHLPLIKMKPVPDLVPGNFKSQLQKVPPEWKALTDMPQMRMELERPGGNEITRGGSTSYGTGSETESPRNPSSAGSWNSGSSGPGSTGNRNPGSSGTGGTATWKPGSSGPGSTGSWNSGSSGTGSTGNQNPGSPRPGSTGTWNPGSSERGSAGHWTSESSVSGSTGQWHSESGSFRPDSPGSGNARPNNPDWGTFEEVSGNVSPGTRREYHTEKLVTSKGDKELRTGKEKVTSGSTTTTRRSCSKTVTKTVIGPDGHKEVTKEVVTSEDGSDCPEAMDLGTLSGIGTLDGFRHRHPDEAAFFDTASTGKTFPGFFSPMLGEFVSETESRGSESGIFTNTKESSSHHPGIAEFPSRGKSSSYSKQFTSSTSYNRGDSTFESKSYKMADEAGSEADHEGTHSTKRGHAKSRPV
T1 sequence (P02675 45-491 limits assumed): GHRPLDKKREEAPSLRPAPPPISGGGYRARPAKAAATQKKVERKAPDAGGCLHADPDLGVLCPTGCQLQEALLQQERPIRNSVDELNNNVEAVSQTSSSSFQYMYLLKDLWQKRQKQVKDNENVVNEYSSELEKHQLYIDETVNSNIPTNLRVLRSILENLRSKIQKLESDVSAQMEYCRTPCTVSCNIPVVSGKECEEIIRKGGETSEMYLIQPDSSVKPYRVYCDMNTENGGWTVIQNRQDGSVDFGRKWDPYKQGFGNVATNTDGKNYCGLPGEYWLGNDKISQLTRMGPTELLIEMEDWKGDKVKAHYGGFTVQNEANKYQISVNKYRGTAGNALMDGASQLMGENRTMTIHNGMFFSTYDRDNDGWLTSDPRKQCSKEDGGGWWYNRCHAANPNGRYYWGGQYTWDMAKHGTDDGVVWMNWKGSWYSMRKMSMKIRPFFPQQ
T1 sequence (P02679 27-437 isoform P02679-2 limits assumed): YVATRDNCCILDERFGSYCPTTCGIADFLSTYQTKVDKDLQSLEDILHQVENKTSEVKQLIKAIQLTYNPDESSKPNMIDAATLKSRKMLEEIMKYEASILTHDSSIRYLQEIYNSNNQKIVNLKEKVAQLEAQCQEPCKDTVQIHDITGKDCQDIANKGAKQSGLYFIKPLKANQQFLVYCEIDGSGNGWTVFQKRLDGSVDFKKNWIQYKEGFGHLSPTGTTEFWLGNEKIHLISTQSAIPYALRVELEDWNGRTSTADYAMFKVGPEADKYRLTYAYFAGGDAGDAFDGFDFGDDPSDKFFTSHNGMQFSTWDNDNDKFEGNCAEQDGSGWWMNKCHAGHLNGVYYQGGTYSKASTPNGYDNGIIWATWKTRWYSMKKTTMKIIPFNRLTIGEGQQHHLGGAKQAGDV
Experimental: As previously reported, to synthesize fibrin clots, 75 μL of fibrinogen solution (2 mg/mL) in 0.9% NaCl was added to four 1.5 mL EP tubes. 30 μL of a 2.5 U/mL thrombin solution in 0.9% NaCl was subsequently added to these tubes. The tubes were placed in the thermostatic oscillator at 37°C for four hours, and the gels representative of fibrin clots were formed in the tubes. 370 KBq (10 μCi) fluorine-18-labeled peptide was diluted in 1 ml PBS. 100 μL of the solution was added into each tube, respectively, and added into four empty tubes for reference. All tubes were incubated at 37°C for one hour. After that, the supernatant liquid was carefully pipetted. PBS was added and pipetted three times to remove any CREKA or peptides not bond to the fibrin clots. Finally, all tubes were measured by a CAPRAC®-R radioactive counter (Imaxeon) to obtain the bond-to-gross ratio.

[6] = system: U87MG xenograft; details: mouse, in vivo
Experimental: Animal procedures were performed according to the guideline of the Animal Ethics Committee of the Southern Medical University. Approximately 10 × 10^6 U87MG cells and Caov3 cells were suspended in PBS and subcutaneously implanted in the right armpit of female BALB/c nude mice. Tumors were allowed to grow to a size of 0.5–1.5 cm in diameter.
Small-animal PET/CTs were performed at the PET center of Southern Medical University Nanfang Hospital using a PET/CT scanner (Simens Inveon Micro-PET/CT). Tumor-bearing mice (n = 3/group) were intravenously injected with 5.55 MBq of ^18F-NOTA-LP or ^18F-NOTA-iCREKA under isoflurane anesthesia. A ten-minute static PET scan for each animal was acquired at 30, 60, and 120 min after the injection. 120 min dynamic scans were also obtained for ^18F-NOTA-LP and ^18F-NOTA-iCREKA (n = 2/group). The 3-dimensional ordered subset expectation maximization (3D-OSEM) algorithm was used for the PET reconstruction, and CT was applied for attenuation correction. Inveon Research Workplace (IRW) 3.0 software (Siemens, Germany) was used to measure the regions of interest (ROIs). The radioactivity concentrations were computed automatically, and the results were reflected by the unit of percent injected dose per gram (%ID/g). The maximum %ID/g of the ROIs was used for statistical analyses. Tumor-to-muscle (T/M) uptake ratios were calculated by dividing the radioactivity uptake in the tumor by the contralateral shoulder muscle.

Substance | logP value [1] | cellular uptake to Caov3 cells after activation by MMP-2 [2] | area under the time-radioactivity curve representative of defluorination, blood [3] [%] | area under the time-radioactivity curve representative of defluorination, tumor [3] [%] | cellular uptake to U87MG cells after activation by MMP-2 [4] | cellular uptake percentage (ID%), peak / maximum, U87MG cells [4] | fibrin-binding percentage (bond-to-gross ratio) [5] | kidney uptake [6] | liver uptake [6] | tumor-to-muscle (T/M) ratio on micro-PET [6] | maximum T/M ratio on dynamic micro-PET [6]
CREKAPLGLAGRKKRRQRRRCK (NOTA) (Cys&Cys bridge) (disulfide) [^18F-NOTA-iCREKA] | −2.51 ± 0.01 | obviously increased | 27.78 | 23.28 | increased | 23.90% and 16.05% | 67.92 ± 6.71% | about 27 %ID/g | about 4 %ID/g | 6.48 ± 0.50 | –
CREKAPLGLAGRKKRRQRRRCK (NOTA) [^18F-NOTA-LP, Al^18F-labeled NOTA conjunct of the contrasted linear peptide LP] | −2.57 ± 0.02 | slightly higher | – | – | increased | 16.05% and 23.90% | 67.09 ± 6.20% | – | – | 2.08 ± 0.50 | 2.69 ± 0.35
NOTA-CREKA [^18F-NOTA-CREKA, Al^18F-labeled NOTA conjunct of the pentapeptide CREKA] | −2.47 ± 0.05 | nearly no radioactivity | – | – | still no radioactivity | – | 69.31% ± 6.82 | – | – | – | –
